- melting point: 183 °C
SMILES: CCn1ccc2c(Nc3ccc(Cl)cc3)nc(C#N)nc21 [Example 27, 4-[(4-Chlorophenyl)amino]-7-ethyl-7H-pyrrolo[2,3-d]pyrimidine-2-carbonitrile]

Source: US7439240B2, “Purine-or pyrrolol[2,3-d]pyrimidine-2-carbonitiles for treating diseases associated with cysteine protease activity” (AstraZeneca AB, priority 2002, dated 2008)
